Source: patent US4233299A, “4-Hydroxy-2H-1,2-benzothiazine-3-carboxamide-1,1-dioxides and salts thereof” (priority 1977, dated 1980)
“Also recorded” adds a separate entry of the source. Read-outs that look alike come from different tables or passages of the source.

Experiments:
[1] = test system: adjuvant arthritis; assay: activity against adjuvant arthritis in the rat; type: in vivo, male Chbb:THOM-rats; details: for ED50: Rattus norvegicus, 504 h; for antiphlogistic activity: in words, compared with compound A
Method: 0.1 ml of a 1% suspension of M. butyricum in viscous paraffin oil was administered by subplantar injection to the right hind paw of male Chbb:THOM-rats having an average body weight of 210 gm at the beginning of the test. […]
Using a linear regression analysis, an ED50 with the confidence limits according to FIELLER [Quart. J. Pharm. Pharmacol. 17, 117 (1944)] was calculated as the dosage which reduces the swelling of the paws by 50% in comparison to the control animals.

[2] = test system: pain caused by inflammation (yeast edema); assay: activity against the pain caused by inflammation (Randall and Selitto); type: in vivo, male Chbb:THOM-rats; details: for ED50: po, 1.5 h, read-out: Randall-Selitto ED50
Method: The activity against the pain caused by inflammation was tested according to Randall and Selitto [Arch. Int. Pharmacodyn. 111, 409 (1957] in male Chbb:THOM-rats, having a body weight of 100 to 130 gm. The test compounds were administered perorally 90 minutes after the induction of the yeast edema by means of an esophageal tube. After further 90 minutes the pain threshold was determined in the animals treated with the test compound and in the control animals treated only with the vehicle methyl cellulose, and by using a linear regression analysis an ED50 was calculated with the confidence limits according to FIELLER, the ED50 being the dose which increased the pain threshold by 50%.

[3] = acute toxicity in the mouse; type: in vivo, male and female Chbb: NMRI (SPF)-mice; details: in vivo; for selectivity ratio: po, Table V, LD50 / ED50 adjuvant arthritis prim. reaction, read-out: Therapeutic Ratio I/II (converted); for LD50 at 336 h: Table III, oral administration, mouse, deaths within 14 days, limits in parentheses
Method: (§1) The acute toxicity was determined on male and female Chbb: NMRI (SPF)-mice (sex ratio of each dosage group 1:1) having an average body weight of 20 gm. The test compound was administered perorally as a trituration in 1% of methyl cellulose (0.2 ml/10 gm animal) by means of an esophageal sound.
(§2) The calculation of the LD50 -values was effected according to the method of LITCHFIELD and WILCOXON, based on the percentage of animals which died within 14 days after administration of each dose.

[4] = test system: stomach of the rat; assay: ulcerogenic effect on the stomach of the rat; type: in vivo, male Chbb:THOM-rats
Method: (§3) The test was carried out on male Chbb:THOM-rats with an average body weight of 130 gm at the beginning of the study. The animals were fed with a standard diet (Altromin-R) ad libitum. The test compounds were administered perorally as a trituration in 1% methyl cellulose (1 ml/100 gm animal) by means of an esophageal sound once a day on three successive days. Four hours after the last administration the animals were killed. The stomachs were dissected and the mucosa was washed with water for subsequent macroscopic evaluation. […] Therap. 96, 99 (1949)].

[5] = ulcerogenic effect on the stomach of the rat; type: in vivo, male Chbb:THOM-rats; details: rat, in vivo; for selectivity ratio: po, Table IV, ED50 ulcer / ED50 adjuvant arthritis prim. reaction, read-out: Therapeutic Ratio I/II; for TD50: Table II, daily oral administration for 3 days, limits in parentheses, Litchfield and Wilcoxon, read-out: Ulcerogenic activity in the stomach ED50
Method: as §3

[6] = test system: mouse; assay: acute toxicity in the mouse; type: in vivo, male and female Chbb: NMRI (SPF)-mice; details: compared with the other compounds; see Table V
Method: as §1, §2

[7] = Table I, daily oral administration, 21 days, dose per day, left hind paw swelling reduced by 50%, confidence limits according to FIELLER in parentheses, read-out: Activity against the secondary reaction ED50
[8] = Table I, daily oral administration, 21 days, dose per day, right hind paw swelling reduced by 50%, confidence limits according to FIELLER in parentheses, read-out: Activity against the primary reaction ED50

Structure (SMILES): CN1C(C(=O)Nc2nccs2)=C(O)c2ccccc2S1(=O)=O [C, 4-Hydroxy-2-methyl-N-(2thiazolyl)-2H-1,2-benzothiazine-3-carboxamide-1,1-dioxide]
- ED50 ([1]; po, read-out: Activity against the primary reaction ED50): 0.77 mg/kg
- ED50 ([1]; po, read-out: Activity against the secondary reaction ED50): 0.6 mg/kg
- antiphlogistic activity [1]: weaker antiphlogistic activity
- ED50 ([2]; in Rattus norvegicus): 9.2 mg/kg
- selectivity ratio [3]: 12600
- LD50 at 336 h [3]: 466 mg/kg
- ulcerogenic effect on the stomach, relative to compound A ([4]; in words, compared with compound A): two times stronger
- selectivity ratio [5]: 1.23
- TD50 [5]: 0.95 mg/kg

Structure (SMILES): Cc1cnc(NC(=O)C2=C(O)c3ccccc3S(=O)(=O)N2C)s1 [Compound A, 4-Hydroxy-2-methyl-N-(5-methyl-2-thiazolyl)-2H-1,2-benzothiazine-3-carboxamide-1,1-dioxide]
- ED50 [1, 7]: 0.12 mg/kg
- ED50 [1, 8]: 0.28 mg/kg
- effect on the inflammatory primary reactions, relative to compound C ([1]; compared with compound C): three times greater
- effect on the specific secondary reactions, relative to compound C ([1]; contralateral paw, compared with compound C): about 5 times
- ED50 ([2]; Table VI, peroral, rat, dose which increased the pain threshold by 50%): 5.6 mg/kg
- effectiveness against the pain caused by inflammation ([2]; rat, compared with compound C): increased effectiveness
- difference between the antiphlogistically active doses and the toxic doses [6]: distinctly higher than in the other compounds
- selectivity ratio [3]: 1680
- LD50 at 336 h [3]: 470 mg/kg
- therapeutic ratio relative to compound C ([4]; Table IV ratio, times greater than that of compound C): about 7 times
- stomach compatibility ([4]; in vivo): significantly better
- therapeutic ratio relative to compound B ([4]; times greater than that of compound B): 10 times
- selectivity ratio [5]: 8.25
- TD50 [5]: 2.31 mg/kg

Structure (SMILES): Cc1csc(NC(=O)C2=C(O)c3ccccc3S(=O)(=O)N2C)n1 [Compound B, 4-Hydroxy-2-methyl-N-(4-methyl-2-thiazolyl)-2H-1,2-benzothiazine-3-carboxamide-1,1-dioxide]
- ED50 [1, 7]: 0.21 mg/kg
- ED50 [1, 8]: 0.37 mg/kg
- antiphlogistic activity [1]: does not completely reach the antiphlogistic activity of compound A
- selectivity ratio [3]: 1320
- LD50 at 336 h [3]: 488 mg/kg
- therapeutic ratio, in words ([4]; Table IV ratio, compared with compound C): still smaller than that of compound C
- ulcerogenic activity, in words ([4]; stomach): strong ulcerogenic effect; also recorded: relatively more pronounced than its antiphlogistic activity
- ulcerogenic effect on the stomach, relative to compound A ([4]; times stronger than that of compound A): more than 6 times
- selectivity ratio [5]: 0.84
- TD50 [5]: 0.31 mg/kg
